# Experimental data published in patent US20250205193A1, “THERAPEUTIC COMPOUND AND SALTS” (Regents of the University of Minnesota, priority 2022, published 2025).
# Where two headings read alike, the source gives them in different places.
# Columns and labels:
# in vivo = conditions: mouse
# From the text: (§1) The pharmacokinetics and oral bioavailability of the compound of formula (I) were investigated in mouse following single intravenous and oral gavage.
# 67NR cells = assay: Seahorse XFe96 respiratory experiments in permeabilized cells for pyruvate driven respiration (67NR); type: cell-based; conditions: read-out: inhibits pyruvate driven respiration, IC50
# Experimental: 4T1 cells were seeded (20,000 cells/well) onto Seahorse XFe96 well plates and incubated overnight in growth media at 37° C. and 5% CO2 for adherence. […] For pyruvate driven respiration experiments, test compound was injected in port A, followed by rPFO (1 nM) in port B, followed by respective substrate cocktails (FCCP stimulated) in port C, and rotenone and antimycin A (0.5 μM) in port D. Final substrate concentrations for specific tests were as follows: (5 mM pyruvate, 0.5 mM malate, 2 mM dichloroacetate (DCA); 10 mM glutamate, 2 mM DCA; 2 μM rotenone).
# mice = assay: Single dose acute toxicity study; type: in vivo; conditions: single dose 40 mg/kg PO
# Experimental: Additionally, a single dose acute toxicity study (40 mg/kg PO, q.d.) was carried out.
# [1] = for T1/2: PO 5.00 mg/kg; for F: in vivo, po, 5 mg/kg
# From the text: as §1
# Balb-C mice = assay: Maximum tolerated dose study; type: in vivo; conditions: up to 40 mg/kg PO, q.d.
# Experimental: A maximum tolerated dose study was conducted in Balb-C mice.
compound,measurement,setting,value
CN(Cc1ccc(C(F)(F)F)cc1)c1ccc2cc(C(=O)O)c(=O)oc2c1 [MN-D7],AUC(0-inf),"in vivo; female, iv, 1 mg/kg",626 ng·h/mL
same,AUC(0-t),"in vivo; female, iv, 1 mg/kg",552 ng·h/mL
same,C0,"in vivo; female, iv, 1 mg/kg",226 ng/mL
same,Cmax,"in vivo; female, iv, 1 mg/kg",200 ng/mL
same,MRT inf,"in vivo; female, iv, 1 mg/kg",4.34 h
same,MRT last,"in vivo; female, iv, 1 mg/kg",2.95 h
same,Tmax,"in vivo; female, iv, 1 mg/kg",0.08 h
same,clearance,"in vivo; female, iv, 1 mg/kg",26.6 mL/min/kg
same,half-life,"in vivo; female, iv, 1 mg/kg",3.15 h
same,Vd,"in vivo; female, iv, 1 mg/kg, Vss_obs Vss",6.92 L/kg
same,Vd,"in vivo; female, iv, 1 mg/kg, Vz_obs Vz",7.26 L/kg
same,bioavailability,"in vivo; female, po",~124%
same,half-life,"in vivo; female, po",4.41 h
same,AUC(0-inf),"in vivo; female, po, 5 mg/kg",3480 ng·h/mL
same,AUC(0-t),"in vivo; female, po, 5 mg/kg",3420 ng·h/mL
same,Cmax,"in vivo; female, po, 5 mg/kg",1450 ng/mL
same,MRT inf,"in vivo; female, po, 5 mg/kg",4.39 h
same,MRT last,"in vivo; female, po, 5 mg/kg",3.88 h
same,Tmax,"in vivo; female, po, 5 mg/kg",0.08 h
same,half-life,"in vivo; male, iv",3.65 h
same,AUC(0-inf),"in vivo; male, iv, 1 mg/kg",486 ng·h/mL
same,AUC(0-t),"in vivo; male, iv, 1 mg/kg",413 ng·h/mL
same,C0,"in vivo; male, iv, 1 mg/kg",185 ng/mL
same,Cmax,"in vivo; male, iv, 1 mg/kg",160 ng/mL
same,MRT inf,"in vivo; male, iv, 1 mg/kg",4.97 h
same,MRT last,"in vivo; male, iv, 1 mg/kg",3.17 h
same,Tmax,"in vivo; male, iv, 1 mg/kg",0.08 h
same,clearance,"in vivo; male, iv, 1 mg/kg",34.3 mL/min/kg
same,Vd,"in vivo; male, iv, 1 mg/kg, Vss_obs Vss",10.2 L/kg
same,Vd,"in vivo; male, iv, 1 mg/kg, Vz_obs Vz",10.8 L/kg
same,bioavailability,"in vivo; male, po",~125%
same,half-life,"in vivo; male, po",4.04 h
same,AUC(0-inf),"in vivo; male, po, 5 mg/kg",2610 ng·h/mL
same,AUC(0-t),"in vivo; male, po, 5 mg/kg",2580 ng·h/mL
same,Cmax,"in vivo; male, po, 5 mg/kg",890 ng/mL
same,MRT inf,"in vivo; male, po, 5 mg/kg",4.33 h
same,MRT last,"in vivo; male, po, 5 mg/kg",4.07 h
same,Tmax,"in vivo; male, po, 5 mg/kg",0.25 h
same,IC50,67NR cells,17.8 ± 4.9 nM
same,toxicity upon examination of internal organs,mice,did not cause any toxicity issues
same,HL_Lambda T1/2,"[1]; G1-Male, IV 1.0 mg/kg",3.65 h
same,T1/2,[1]; G2-Female,4.41 h
same,T1/2,[1]; G2-Male,4.04 h
same,F,"[1]; female, mouse",123.84%
same,F,"[1]; male, mouse",124.96%
same,mean terminal half-life,"[1]; mouse, female, IV dose",3.15 h
same,body weight gains and grooming patterns,Balb-C mice,normal body weight gains and grooming patterns
same,tolerability,Balb-C mice,well tolerated
